Experimental data as given in patent US20260130395A1, “Water Dispersible Botanical Compositions” (Aquila Black Limited, priority 2021, published 2026).

Assay: Stability of cannabinoid compounds and Vitamin E components in Beverage 2 (AB Red) by LCMSMS
Type: physicochemical

For C=C(C)[C@@H]1CCC(C)=C[C@H]1c1c(O)cc(CCCCC)c(C(=O)O)c1O [CBDA, cannabidiolic acid], the “Stability of Plant-Derived Cannabinoid Compounds in AB Red” value (“Stability” below) (stored at 8° C., 0 days) was 1.68 µg/mL, the “Stability” value (stored at 8° C., 1 days) was 1.69 µg/mL and the “Stability” value (stored at 8° C., 2 days) was 1.66 µg/mL. The “Stability” value (stored at 8° C., 3 days) was 1.64 µg/mL, the “Stability” value (stored at 8° C., 5 days) was 1.67 µg/mL and the “Stability” value (stored at 8° C., 8 days) was 1.68 µg/mL. For the same compound, the “Stability” value (stored at 8° C., 9 days) was 1.65 µg/mL, the “Stability” value (stored at 8° C., 10 days) was 1.67 µg/mL and the “Stability” value (stored at 8° C., 11 days) was 1.65 µg/mL. For the same compound, the “Stability” value (stored at 8° C., 12 days) was 1.68 µg/mL, the “Stability” value (stored at 8° C., 15 days) was 1.67 µg/mL and the “Stability” value (stored at 8° C., 16 days) was 1.69 µg/mL. For the same compound, the “Stability” value (stored at 8° C., 17 days) was 1.64 µg/mL, the “Stability” value (stored at 8° C., 18 days) was 1.65 µg/mL and the “Stability” value (stored at 8° C., 19 days) was 1.68 µg/mL. The “Stability” value (stored at 8° C., 22 days) was 1.70 µg/mL, the “Stability” value (stored at 8° C., 23 days) was 1.63 µg/mL and the “Stability” value (stored at 8° C., 24 days) was 1.70 µg/mL. The “Stability” value (stored at 8° C., 25 days) was 1.63 µg/mL, the “Stability” value (stored at 8° C., 26 days) was 1.63 µg/mL and the “Stability” value (stored at 8° C., 29 days) was 1.66 µg/mL. For the same compound, the “Stability” value (stored at 8° C., 30 days) was 1.70 µg/mL, the “Stability” value (stored at 8° C., 60 days) was 1.66 µg/mL and the “Stability” value (stored at 8° C., 90 days) was 1.68 µg/mL. The “Stability” value (stored at 8° C., 120 days) was 1.65 µg/mL, the “Stability” value (stored at 8° C., 150 days) was 1.66 µg/mL and the “Stability” value (stored at 8° C., 180 days) was 1.60 µg/mL. The “Stability” value (stored at 8° C., 210 days) was 1.65 µg/mL, the “Stability” value (stored at 8° C., 240 days) was 1.66 µg/mL and the “Stability” value (stored at 8° C., 270 days) was 1.63 µg/mL. The “Stability” value (stored at 8° C., 300 days) was 1.65 µg/mL, the “Stability” value (stored at 8° C., 330 days) was 1.60 µg/mL and the “Stability” value (stored at 8° C., 360 days) was 1.62 µg/mL. The “Stability” value (stored at 8° C., 390 days) was 1.63 µg/mL, the “Stability” value (stored at 8° C., 420 days) was 1.63 µg/mL and the “Stability” value (stored at 8° C., 450 days) was 1.63 µg/mL. The “Stability” value (stored at 8° C., 480 days) was 1.60 µg/mL, the “Stability” value (stored at 8° C., 510 days) was 1.55 µg/mL and the “Stability” value (stored at 8° C., 540 days) was 1.55 µg/mL. For the same compound, the “Stability” value (stored at 8° C., 570 days) was 1.54 µg/mL, the “Stability” value (stored at 21-25° C., 0 days) was 1.68 µg/mL and the “Stability” value (stored at 21-25° C., 1 days) was 1.70 µg/mL. For the same compound, the “Stability” value (stored at 21-25° C., 2 days) was 1.65 µg/mL, the “Stability” value (stored at 21-25° C., 3 days) was 1.64 µg/mL and the “Stability” value (stored at 21-25° C., 5 days) was 1.69 µg/mL. The “Stability” value (stored at 21-25° C., 8 days) was 1.64 µg/mL, the “Stability” value (stored at 21-25° C., 9 days) was 1.63 µg/mL and the “Stability” value (stored at 21-25° C., 10 days) was 1.61 µg/mL. The “Stability” value (stored at 21-25° C., 11 days) was 1.64 µg/mL, the “Stability” value (stored at 21-25° C., 12 days) was 1.70 µg/mL and the “Stability” value (stored at 21-25° C., 15 days) was 1.64 µg/mL. The “Stability” value (stored at 21-25° C., 16 days) was 1.67 µg/mL, the “Stability” value (stored at 21-25° C., 17 days) was 1.63 µg/mL and the “Stability” value (stored at 21-25° C., 18 days) was 1.65 µg/mL. The “Stability” value (stored at 21-25° C., 19 days) was 1.70 µg/mL, the “Stability” value (stored at 21-25° C., 22 days) was 1.66 µg/mL and the “Stability” value (stored at 21-25° C., 23 days) was 1.63 µg/mL. For the same compound, the “Stability” value (stored at 21-25° C., 24 days) was 1.65 µg/mL, the “Stability” value (stored at 21-25° C., 25 days) was 1.64 µg/mL and the “Stability” value (stored at 21-25° C., 26 days) was 1.67 µg/mL. For the same compound, the “Stability” value (stored at 21-25° C., 29 days) was 1.62 µg/mL, the “Stability” value (stored at 21-25° C., 30 days) was 1.68 µg/mL and the “Stability” value (stored at 21-25° C., 60 days) was 1.59 µg/mL. The “Stability” value (stored at 21-25° C., 90 days) was 1.60 µg/mL, the “Stability” value (stored at 21-25° C., 120 days) was 1.64 µg/mL and the “Stability” value (stored at 21-25° C., 150 days) was 1.58 µg/mL. For the same compound, the “Stability” value (stored at 21-25° C., 180 days) was 1.64 µg/mL, the “Stability” value (stored at 21-25° C., 210 days) was 1.64 µg/mL and the “Stability” value (stored at 21-25° C., 240 days) was 1.60 µg/mL. The “Stability” value (stored at 21-25° C., 270 days) was 1.65 µg/mL, the “Stability” value (stored at 21-25° C., 300 days) was 1.58 µg/mL and the “Stability” value (stored at 21-25° C., 330 days) was 1.65 µg/mL. The “Stability” value (stored at 21-25° C., 360 days) was 1.58 µg/mL, the “Stability” value (stored at 21-25° C., 390 days) was 1.61 µg/mL and the “Stability” value (stored at 21-25° C., 420 days) was 1.59 µg/mL. The “Stability” value (stored at 21-25° C., 450 days) was 1.57 µg/mL, the “Stability” value (stored at 21-25° C., 480 days) was 1.57 µg/mL and the “Stability” value (stored at 21-25° C., 510 days) was 1.56 µg/mL. For the same compound, the “Stability” value (stored at 21-25° C., 540 days) was 1.57 µg/mL and the “Stability” value (stored at 21-25° C., 570 days) was 1.54 µg/mL.
